According to ChEMBL document CHEMBL2439953, “Dimeric argininamide-type neuropeptide Y receptor antagonists: chiral discrimination between Y1 and Y4 receptors” (Bioorg Med Chem, 2013):

How the values were obtained:
[1] = target: T1, Neuropeptide Y receptor type 4 (Homo sapiens, UniProt P50391); experiment: Antagonist activity at human neuropeptide Y receptor type 4 expressed in CHO cells co-expressing Gqi5-mtAEQ assessed as inhibition of hPP-induced calcium mobilization by Aequorin assay; format: functional, cell-based
T1 sequence (P50391 whole entry): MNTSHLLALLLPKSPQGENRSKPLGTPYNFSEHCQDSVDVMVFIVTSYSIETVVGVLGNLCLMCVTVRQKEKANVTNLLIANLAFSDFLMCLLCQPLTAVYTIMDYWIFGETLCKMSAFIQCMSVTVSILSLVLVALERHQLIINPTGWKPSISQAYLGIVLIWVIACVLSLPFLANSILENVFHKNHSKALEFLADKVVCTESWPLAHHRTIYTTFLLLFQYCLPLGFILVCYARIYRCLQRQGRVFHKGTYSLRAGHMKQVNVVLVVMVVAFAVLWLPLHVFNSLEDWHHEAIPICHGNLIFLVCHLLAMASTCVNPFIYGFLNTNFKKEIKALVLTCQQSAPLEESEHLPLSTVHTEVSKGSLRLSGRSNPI

[2] = target: T2, Neuropeptide Y receptor type 5 (Homo sapiens, UniProt Q15761); experiment: Binding affinity to human neuropeptide Y receptor type 5 receptor expressed in HEC-1B cells using Cy5-pNPY by flow cytometric analysis; format: cell-based
T2 sequence (Q15761 whole entry): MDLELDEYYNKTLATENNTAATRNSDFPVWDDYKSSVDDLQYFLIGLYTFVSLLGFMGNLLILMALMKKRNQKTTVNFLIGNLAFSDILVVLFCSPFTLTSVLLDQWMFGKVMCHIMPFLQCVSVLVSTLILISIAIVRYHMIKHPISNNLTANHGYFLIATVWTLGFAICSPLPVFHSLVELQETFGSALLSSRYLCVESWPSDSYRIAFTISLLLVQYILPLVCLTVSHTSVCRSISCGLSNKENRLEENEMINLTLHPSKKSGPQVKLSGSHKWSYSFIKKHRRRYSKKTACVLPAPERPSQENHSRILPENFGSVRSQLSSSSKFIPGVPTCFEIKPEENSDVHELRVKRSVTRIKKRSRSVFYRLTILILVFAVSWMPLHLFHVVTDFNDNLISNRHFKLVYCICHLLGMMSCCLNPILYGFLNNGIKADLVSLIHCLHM

[3] = target: T1, Neuropeptide Y receptor type 4; experiment: Binding affinity to human neuropeptide Y receptor type 4 receptor expressed in CHO cells using Cy5-[K4]-hPP by flow cytometric analysis; format: cell-based
[4] = target: T3, Neuropeptide Y receptor type 1 (Homo sapiens, UniProt P25929); experiment: Displacement of [3H]UR-MK114 from human neuropeptide Y receptor type 1 expressed in human SK-N-MC cells; format: cell-based
T3 sequence (P25929 whole entry): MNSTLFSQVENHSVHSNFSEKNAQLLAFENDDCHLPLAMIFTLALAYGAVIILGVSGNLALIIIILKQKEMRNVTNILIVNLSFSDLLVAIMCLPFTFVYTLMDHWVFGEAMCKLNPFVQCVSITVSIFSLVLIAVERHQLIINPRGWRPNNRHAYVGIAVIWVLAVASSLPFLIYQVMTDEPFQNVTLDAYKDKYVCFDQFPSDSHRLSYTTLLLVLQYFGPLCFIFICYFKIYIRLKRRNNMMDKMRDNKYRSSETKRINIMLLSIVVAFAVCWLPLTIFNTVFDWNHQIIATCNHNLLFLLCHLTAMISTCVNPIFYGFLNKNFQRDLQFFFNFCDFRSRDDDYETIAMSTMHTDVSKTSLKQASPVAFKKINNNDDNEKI

[5] = target: T4, Neuropeptide Y receptor type 2 (Homo sapiens, UniProt P49146); experiment: Binding affinity to human neuropeptide Y receptor type 2 receptor expressed in CHO cells using Cy5-pNPY by flow cytometric analysis; format: cell-based
T4 sequence (P49146 whole entry): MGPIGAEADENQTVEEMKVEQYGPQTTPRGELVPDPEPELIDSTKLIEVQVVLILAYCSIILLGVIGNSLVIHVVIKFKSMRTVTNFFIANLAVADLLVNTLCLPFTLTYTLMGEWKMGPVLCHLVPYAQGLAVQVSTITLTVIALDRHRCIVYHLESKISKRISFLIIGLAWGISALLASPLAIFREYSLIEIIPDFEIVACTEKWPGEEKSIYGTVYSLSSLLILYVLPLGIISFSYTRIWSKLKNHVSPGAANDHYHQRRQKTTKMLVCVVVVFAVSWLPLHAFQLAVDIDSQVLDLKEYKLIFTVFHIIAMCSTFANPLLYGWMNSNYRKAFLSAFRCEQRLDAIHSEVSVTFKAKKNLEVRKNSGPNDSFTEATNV

Row | SMILES | Kb [1] [nM] | Ki [2] [nM] | Ki [3] [nM] | Ki [4] [nM] | Ki [5] [nM]
1 | NCCC(=O)NCCNC(=O)CCC(=O)NCCNC(=O)CCC(=O)NCCNC(=O)/N=C(\N)NCCC[C@H](NC(=O)C(c1ccccc1)c1ccccc1)C(=O)NCc1ccc(CNC(N)=O)cc1 | > 5000 | > 5000 | 3500 | > 5000 | > 5000
2 | NCCOCCOCCNC(=O)/N=C(/N)NCCC[C@@H](NC(=O)C(c1ccccc1)c1ccccc1)C(=O)NCc1ccc(CNC(N)=O)cc1 |  |  |  | 31 | 
3 | NCCN(CCNC(=O)c1ccc(C(=O)NCCCCNC(=O)/N=C(/N)NCCC[C@@H](NC(=O)C(c2ccccc2)c2ccccc2)C(=O)NCc2ccc(O)cc2)cc1)CCNC(=O)c1ccc(C(=O)NCCCCNC(=O)/N=C(/N)NCCC[C@@H](NC(=O)C(c2ccccc2)c2ccccc2)C(=O)NCc2ccc(O)cc2)cc1 | 34 | > 5000 | 210 | 53 | 780
4 | NCCCCCCNC(=O)/N=C(/N)NCCC[C@H](NC(=O)CC1(CC(=O)N2CCN(C3c4ccccc4NC(=O)c4ccccc43)CC2)CCCC1)C(=O)NCCn1c(=O)n(-c2ccccc2)n(-c2ccccc2)c1=O (some centres undefined) |  |  |  | > 5000 | 7
5 | NCCC(=O)NCCNC(=O)CCC(=O)NCCNC(=O)/N=C(\N)NCCC[C@H](NC(=O)C(c1ccccc1)c1ccccc1)C(=O)NCc1ccc(CNC(N)=O)cc1 | > 5000 | > 5000 | 3300 | > 5000 | > 5000
6 | NCCCOCCOCCOCCNC(=O)CCC(=O)NCCNC(=O)/N=C(\N)NCCC[C@@H](NC(=O)C(c1ccccc1)c1ccccc1)C(=O)NCc1ccc(CNC(N)=O)cc1 |  |  | > 5000 | 71 | 
7 | NCCCCCCNC(=O)/N=C(/N)NCCC[C@@H](NC(=O)C(c1ccccc1)c1ccccc1)C(=O)NCc1ccc(O)cc1 |  |  |  | 9.9 | 
8 | N=C(N)NCCC[C@@H](NC(=O)C(c1ccccc1)c1ccccc1)C(=O)NCc1ccc(CNC(=O)NCCCCNC(=O)CN)cc1 |  |  |  | 14 | 
9 | NCCC(=O)NCCNC(=O)CCC(=O)NCCNC(=O)CCC(=O)NCCNC(=O)/N=C(\N)NCCC[C@@H](NC(=O)C(c1ccccc1)c1ccccc1)C(=O)NCc1ccc(CNC(N)=O)cc1 |  |  | > 5000 | 1200 | 
10 | NCCN(CCNC(=O)CCCCC(=O)NCCCCNC(=O)/N=C(/N)NCCC[C@@H](NC(=O)C(c1ccccc1)c1ccccc1)C(=O)NCc1ccc(O)cc1)CCNC(=O)CCCCC(=O)NCCCCNC(=O)/N=C(/N)NCCC[C@@H](NC(=O)C(c1ccccc1)c1ccccc1)C(=O)NCc1ccc(O)cc1 | 32 | > 5000 | 550 | 42 | 1000
11 | CCC(=O)NCC(=O)NCCCCNC(=O)NCc1ccc(CNC(=O)[C@@H](CCCNC(=N)N)NC(=O)C(c2ccccc2)c2ccccc2)cc1 |  |  |  | 73 | 
12 | N=C(N)NCCCC(NC(=O)CC1(CC(=O)N2CCN(C3c4ccccc4NC(=O)c4ccccc43)CC2)CCCC1)C(=O)NCCn1c(=O)n(-c2ccccc2)n(-c2ccccc2)c1=O (single isomer, unassigned) |  | > 5000 | > 7500 | > 5000 | 
13 | NCCN(CCNC(=O)CCC(=O)NCCCCCCNC(=O)/N=C(/N)NCCC[C@@H](NC(=O)C(c1ccccc1)c1ccccc1)C(=O)NCc1ccc(O)cc1)CCNC(=O)CCC(=O)NCCCCCCNC(=O)/N=C(/N)NCCC[C@@H](NC(=O)C(c1ccccc1)c1ccccc1)C(=O)NCc1ccc(O)cc1 | 33 | > 5000 | 270 | 40 | 1300
14 | N=C(N)NCCC[C@@H](NC(=O)C(c1ccccc1)c1ccccc1)C(=O)NCc1ccc(O)cc1 |  |  | > 5000 |  | 
15 | NCCNC(=O)CCC(=O)NCCNC(=O)/N=C(\N)NCCC[C@H](NC(=O)C(c1ccccc1)c1ccccc1)C(=O)NCc1ccc(CNC(N)=O)cc1 | > 5000 |  | 4100 | > 5000 | > 5000
16 | NCCCCCCNC(=O)/N=C(/N)NCCC[C@@H](NC(=O)C(c1ccccc1)c1ccccc1)C(=O)NCc1ccc(CNC(N)=O)cc1 | > 5000 |  | > 5000 | 200 | 
17 | NCCC(=O)NCCNC(=O)CCC(=O)NCCNC(=O)/N=C(\N)NCCC[C@@H](NC(=O)C(c1ccccc1)c1ccccc1)C(=O)NCc1ccc(CNC(N)=O)cc1 |  |  | > 5000 | 86 | 

Row | SMILES | Kb [1] [nM] | Ki [2] [nM] | Ki [3] [nM] | Ki [4] [nM] | Ki [5] [nM]
18 | NCCOCCOCCNC(=O)/N=C(/N)NCCC[C@@H](NC(=O)C(c1ccccc1)c1ccccc1)C(=O)NCc1ccc(O)cc1 |  | > 5000 | > 5000 | 7.3 | > 5000
19 | NCCOCCOCCNC(=O)CCC(=O)NCCNC(=O)/N=C(\N)NCCC[C@@H](NC(=O)C(c1ccccc1)c1ccccc1)C(=O)NCc1ccc(CNC(N)=O)cc1 |  |  | > 5000 | 77 | 
20 | N=C(N)NCCC[C@@H](NC(=O)C(c1ccccc1)c1ccccc1)C(=O)NCc1ccc(CNC(=O)NCCCCNC(=O)NCCN)cc1 |  |  |  | 890 | 
21 | NCCN(CCNC(=O)c1ccc(C(=O)NCCOCCOCCNC(=O)/N=C(/N)NCCC[C@H](NC(=O)C(c2ccccc2)c2ccccc2)C(=O)NCc2ccc(O)cc2)cc1)CCNC(=O)c1ccc(C(=O)NCCOCCOCCNC(=O)/N=C(/N)NCCC[C@H](NC(=O)C(c2ccccc2)c2ccccc2)C(=O)NCc2ccc(O)cc2)cc1 | 27 | > 5000 | 260 | > 5000 | 1400
22 | NCCCOCCOCCOCCNC(=O)CCC(=O)NCCNC(=O)/N=C(\N)NCCC[C@H](NC(=O)C(c1ccccc1)c1ccccc1)C(=O)NCc1ccc(CNC(N)=O)cc1 | > 5000 | > 5000 | 3700 | > 5000 | > 5000
23 | N=C(N)NCCC[C@@H](NC(=O)C(c1ccccc1)c1ccccc1)C(=O)NCc1ccc(CNC(=O)NCCCCN)cc1 | > 5000 |  | > 5000 | 41 | 
24 | NCCNC(=O)CCC(=O)NCCNC(=O)CCC(=O)NCCNC(=O)/N=C(\N)NCCC[C@@H](NC(=O)C(c1ccccc1)c1ccccc1)C(=O)NCc1ccc(CNC(N)=O)cc1 |  |  | > 5000 | 1000 | 
25 | NCCNC(=O)CCC(=O)NCCNC(=O)/N=C(\N)NCCC[C@@H](NC(=O)C(c1ccccc1)c1ccccc1)C(=O)NCc1ccc(CNC(N)=O)cc1 |  |  | > 5000 | 360 | 
26 | NC(N)=NCCC[C@H](NC(=O)C(c1ccccc1)c1ccccc1)C(=O)NCc1ccc(O)cc1 |  |  | > 5000 |  | 
27 | NCCCCNC(=O)/N=C(/N)NCCC[C@@H](NC(=O)C(c1ccccc1)c1ccccc1)C(=O)NCc1ccc(O)cc1 |  |  | > 5000 |  | 
28 | N=C(N)NCCC[C@@H](NC(=O)C(c1ccccc1)c1ccccc1)C(=O)NCc1ccc(CNC(N)=O)cc1 | > 5000 |  | > 5000 |  | 
29 | NCCNC(=O)CCC(=O)NCCNC(=O)CCC(=O)NCCNC(=O)/N=C(\N)NCCC[C@H](NC(=O)C(c1ccccc1)c1ccccc1)C(=O)NCc1ccc(CNC(N)=O)cc1 | > 5000 | > 5000 | > 5000 | > 5000 | > 5000
30 | N=C(N)NCCOCCOCCNC(=O)/N=C(/N)NCCC[C@@H](NC(=O)C(c1ccccc1)c1ccccc1)C(=O)NCc1ccc(O)cc1 |  | > 5000 | 3800 | 130 | 
31 | N=C(N)NCCC[C@@H](NC(=O)C(c1ccccc1)c1ccccc1)C(=O)NCc1ccc(CNC(=O)NCCCCNC(=O)CNC(=O)CCC(=O)NCCN(CCN)CCNC(=O)CCC(=O)NCC(=O)NCCCCNC(=O)NCc2ccc(CNC(=O)[C@@H](CCCNC(=N)N)NC(=O)C(c3ccccc3)c3ccccc3)cc2)cc1 | 900 | > 5000 | 2200 | 200 | 2300
32 | NCCOCCOCCNC(=O)CCC(=O)NCCNC(=O)/N=C(\N)NCCC[C@H](NC(=O)C(c1ccccc1)c1ccccc1)C(=O)NCc1ccc(CNC(N)=O)cc1 | > 5000 | > 5000 | 3200 | > 5000 | > 5000
33 | NCCOCCOCCNC(=O)/N=C(/N)NCCC[C@H](NC(=O)C(c1ccccc1)c1ccccc1)C(=O)NCc1ccc(O)cc1 |  | > 5000 |  | > 5000 | > 5000
34 | NC(=NCCC[C@@H](NC(=O)C(c1ccccc1)c1ccccc1)C(=O)NCc1ccc(O)cc1)NC(=O)CCCCCCC(=O)NC(N)=NCCC[C@@H](NC(=O)C(c1ccccc1)c1ccccc1)C(=O)NCc1ccc(O)cc1 |  |  | 2000 | 63 | 
